Patent publication US20260062445A1, “PEPTIDES WITH CYTOKINE-RELEASING ACTIVITY AND METHODS FOR CHARACTERIZING CYTOKINE-RELEASING PROFILES OF PEPTIDES” (KOLIBER BIOSCIENCES INC., priority 2022, published 2026)

Tested on: expanded naïve CD4+ T cells co-cultured with PBMCs
Assay: Expanded CD4 positive T cell assay (cytokine release, ELISA)
Format: cell-based, human
Conditions: for response across donors (frequency of responding wells, IL-10 and IFN-γ): three different donors expressing HLA-DRB1*1101, FIGS. 7A-7B
From the text: To improve the robustness of the assay and decrease the well-to-well variation, a novel assay system was developed. In effect, by expanding the naïve CD4+ T cells, the number of antigen specific T cells can be increased per well with the goal of detecting a responding well with greater frequency. To expand the naïve CD4+ T cells, the cells are first isolated from PBMCs using negative selection with antibody coated magnetic beads. The naïve CD4+ T cells are then polyclonally expanded using anti-CD3 and anti-CD28 Dynabeads. An expansion of up to 20-fold was observed. The beads were then removed, and the cells were rested for 24 hours. The expanded CD4+ T cells were then co-cultured with PBMCs at a 4:1 ratio and stimulated with peptides twice every 3 days. IL-2 helper cytokine was included. Peptides were utilized at 40 μg/mL. After two peptide stimulations, IL-10 levels in the range of 20-50 picograms […]/mL were observed as compared to 5-10 pg/mL for negative controls (vehicle only) (see FIG. 3C).
PBMCs were isolated from healthy HLA typed donors of different ages, ethnicities, and genders. […] 100 million PBMC were thawed into media (Rosewell Park Memorial Institute (RPMI) 1640 medium, 10% fetal bovine serum (FBS) Heat Inactivated, 1% Penicillin-Streptomycin) and rested at 37° C., 5% CO2 overnight.
Naïve CD4+ T cells are isolated from rested PBMC using the BioLegend MojoSort™ Human CD4 T Cell Isolation Kit. Isolated T cells were counted and cultured at a density of 1×10^6 cells/mL of media with 30 units per milliliter (U/mL) of IL-2. T cells were activated and expanded using ThermoFisher Dynabeads™ Human T-Activator CD3/CD28. Beads were added at a 1:1 bead-to-cell ratio. T cells are incubated at 37° C., 5% CO2 for approximately 1 week, splitting in order to maintain the 1×10^6 cells/mL seeding density and with the addition of fresh media. T cells often saw a 20- to 30-fold expansion.
Expansion beads were magnetically removed from the T cell culture. Remaining T cells were cultured at 1×10^6 cells/mL in media and the IL-2 level was dropped to 10 units/milliliter (U/mL). T cells are rested 24 hours. Meanwhile, another vial of PBMC of the same donor was thawed and similarly rested overnight in media. 1 million expanded T cells and 0.25 million PBMC were cocultured in 1 mL of media containing 10 U/mL IL-2 in 24 well plates. Each well was stimulated with 40 μg of peptide with at least 6 well replicates for each peptide. Sterile water with 10% DMSO was used as a negative control. Plates were incubated at 37° C., 5% CO2 for 3 days. After 3 days, supernatants of each well were collected into Eppendorf tubes and frozen. Cells were resuspended in fresh media containing 10 U/mL IL-2. Cells were restimulated with 40 μg of peptide in the same format. Plates were incubated for another 3 days (see FIG. 2). Supernatants were collected after the second stimulation and cell culture was terminated.
IL-10 and IFN-γ cytokine concentrations were determined for samples. 96-well microwell plates were coated with capture antibody and incubated overnight at 4° C. Frozen supernatants were thawed and assayed using ELISA MAX™ Deluxe kits.
To quantify the number of responding wells for each peptide, a one sample t-test was utilized where signal from each well was compared against the distribution of negative wells from vehicle only controls. The negative distribution was normal (based on Shapiro Wilk test). […] As such, for each peptide, a fraction of responding wells was derived. The fraction of responding wells after the first and second peptide stimulations in the expanded CD4+ T cell assay are shown in FIGS. 5A-5D. Moreover, the fraction of responding wells was further subjected to the statistical test for proportions which takes into account the sample size.

Row | Substance | IFN-γ signal (upon double stimulation) [pg/mL] | IFN-γ signal (upon single stimulation) [pg/mL] | IFN-γ release (peptide 40 μg/mL, FIGS. 5A-5D) | specificity for IL-10 production vs IFN-γ (three different donors expressing HLA-DRB1*1101) | response across donors (frequency of responding wells, IL-10 and IFN-γ)
1 | Keyhole limpet haemocyanin [KLH, reference compound] | 150 | 80 | – | – | –
2 | FAVPAKQAKKTLT [KBP82] | – | – | minimal levels | high specificity | respond across donors
3 | KLAKRLLLSMNQ [KBP63] | – | – | – | – | respond across donors
4 | LALLAPKLLRRF [KBP73] | – | – | – | – | respond across donors
